In US20030032158A1, “Method of modulating the efficiency of translation termination and degradation of aberrant mRNA involving a surveillance complex comprising human Upf1p,eucaryotic release factor 1 and eucaryotic release factor 3” (University of Medicine and Dentistry of New Jersey, priority 1998, published 2003):
Entries after “also recorded” stand apart in the source; their conditions may differ.

Columns and labels:
Upf1p-eRF3 interaction = target: T1, Upf1p-eRF3 interaction (Saccharomyces cerevisiae, UniProt P30771); experiment: GST-eRF3 pull-down of purified FLAG-Upf1p, immunoblot; type: binding, yeast; settings: 1 mM ATP, 1 mM GTP or 100 μg/ml poly(U) RNA
T1 construct: made in house; host or cells: GST-eRF3: E. coli BL21(DE3) pLysS with pGEX2T-SUP35
T1 sequence (P30771 1-971): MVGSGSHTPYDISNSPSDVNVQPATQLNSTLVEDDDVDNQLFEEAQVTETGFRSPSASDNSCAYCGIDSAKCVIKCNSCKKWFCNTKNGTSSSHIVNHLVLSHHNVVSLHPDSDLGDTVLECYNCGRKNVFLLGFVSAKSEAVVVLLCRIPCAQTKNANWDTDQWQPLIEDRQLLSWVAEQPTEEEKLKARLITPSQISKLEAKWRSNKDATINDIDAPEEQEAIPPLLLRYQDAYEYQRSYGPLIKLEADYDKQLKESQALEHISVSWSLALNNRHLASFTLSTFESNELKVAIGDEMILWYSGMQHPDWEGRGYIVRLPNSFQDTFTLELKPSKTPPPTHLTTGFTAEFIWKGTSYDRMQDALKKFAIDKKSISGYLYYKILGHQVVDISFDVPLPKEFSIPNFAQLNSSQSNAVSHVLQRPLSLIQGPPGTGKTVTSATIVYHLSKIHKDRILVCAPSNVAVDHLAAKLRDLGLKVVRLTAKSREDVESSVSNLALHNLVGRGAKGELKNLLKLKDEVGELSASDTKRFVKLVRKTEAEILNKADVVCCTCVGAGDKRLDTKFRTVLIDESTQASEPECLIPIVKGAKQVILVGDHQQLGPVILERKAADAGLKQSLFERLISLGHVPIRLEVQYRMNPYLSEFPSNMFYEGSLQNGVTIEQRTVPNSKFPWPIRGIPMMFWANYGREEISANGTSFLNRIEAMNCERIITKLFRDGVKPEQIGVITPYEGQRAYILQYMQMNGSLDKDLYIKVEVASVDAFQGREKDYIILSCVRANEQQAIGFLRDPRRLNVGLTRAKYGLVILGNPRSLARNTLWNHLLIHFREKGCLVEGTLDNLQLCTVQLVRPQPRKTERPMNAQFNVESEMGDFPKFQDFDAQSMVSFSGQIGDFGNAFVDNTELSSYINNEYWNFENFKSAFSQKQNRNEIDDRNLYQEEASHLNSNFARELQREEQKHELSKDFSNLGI
Method: FIG. 3. eRF3 and RNA compete for binding to Upf1p. (A) Poly(U) RNA prevents Upf1p from binding to eRF3. Reaction mixtures were prepared as described in FIG. 1B, except that binding was performed in TBSTB (TBST with 100 μg/ml BSA) and reaction mixtures contained 1 mM ATP, 1 mM GTP, or 100 μg/ml poly(U) RNA as indicated above each lane. The reaction mixtures were mixed for 1 hour at 4° C. Following mixing, the complexes were washed as in FIG. 1B with TBSTB containing 1 mM ATP, 1 mM GTP, or 100 μg/ml poly(U) RNA as indicated above each lane. […] Reaction mixtures were prepared as in FIG. 1B, in the presence or absence of […] poly(U) RNA as indicated above each lane. (C) eRF3 inhibits Upf1p RNA binding. A uniformly labeled 32 nt RNA was synthesized by SP6 transcription of SstI digested pGEM5Zf(+). The indicated amounts of GST-eRF3, were incubated with 200 ng Upf1p for 15 minutes at 4° C. 50 fmol of the RNA substrate was added and incubated for 5 minutes. Stop solution was added, and reactions electrophoresed in a 4.5% native PAGE gel (0.5×TBE, 30:0.5 acrylamide:bisacrylamide, with 5% glycerol). […]
Further, purified Flag-Upf1p with poly(U) RNA was incubated in the presence or absence of ATP. […] GST-eRF3 was added to the reaction mixtures and the Upf1-eRF3 interaction was monitored by immunoblotting analysis as before.

[1] = tested on: −1 ribosomal frameshifting; experiment: β-galactosidase assay of −1 ribosomal frameshifting with plasmids pF8 / pTI25; type: cell-based, Saccharomyces cerevisiae
Method: Killer assays, frameshifting assays and extraction and analysis of total nucleic acids:The killer assay was carried out as previously described (Dinman, J. D., and Wickner, R. B. (1992)) by replica plating colonies onto 4.7 MB plates newly seeded with a lawn of 5×47 killer indicator cells (0.5 ml of a suspension at 1 unit of optical density at 550 nm per ml per plate). After 2 days at 20° C., killer activity was observed as a zone of growth inhibition around the killer colonies. To quantitate loss of killer activity, colonies that had been identified as killer^+ were re-streaked for single colonies and the percentage of killer^− colonies were determined. The efficiencies of −1 frameshifting were determined as previously described (Cui, Y., Dinman, J. D., and Peltz, S. W. (1996); Dinman, J. D., Ruiz-Echevarria, M. J., Czaplinski, K. and Peltz, S. W. (1997b)) using the 0-frame control (pTI25) and −1 reporter (pF8) plasmids.
Methods to measure efficiencies of programmed ribosomal frameshifting in vivo have been described previously (Cui, Y., Dinman, J. D., and Peltz, S. W. (1996); Dinman, J. D., Icho, T., and Wickner, R. B. (1991); Dinman, J. D., Ruiz-Echevarria, M. J., Czaplinski, K. and Peltz, S. W. (1997b)). […] Similarly, the +1 ribosomal frameshift efficiency is calculated based on the pJD104 to pTI25 β-gal ratios. […]

[2] = tested on: isogenic wild-type and upf3Δ strains; settings: cells harboring the mof4-1 allele of UPF1; previous results; cited from earlier work
[3] = tested on: isogenic wild-type and upf3Δ strains; experiment: Paromomycin sensitivity, zone of growth inhibition around a disc on a lawn of cells; type: cell-based, Saccharomyces cerevisiae
Method: FIG. 11. Paromomycin sensitivity was monitored in isogenic wild-type and upf3Δ strains by placing a disc containing 1 mg of paromomycin onto a lawn of cells and determining the zone of growth inhibition around the disc.
Paromomycin sensitivity was monitored in isogenic wild-type and upf3Δ strains by placing a disc containing 1 mg of paromomycin onto a lawn of cells and determining the zone of growth inhibition around the disc (FIG. 11).

| SMILES | Effect on interaction between Upf1p and eRF3 (Upf1p-eRF3 interaction) | β-galactosidase activity (−1 frameshift reporter) ([1]; upf3Δ cells carrying pF8, liquid media, different concentrations of the drug) | β-galactosidase activity ([1]; wild-type cells containing pF8, or any strain carrying pTI25 (zero frame control)) | Paromomycin sensitivity [2] | Paromomycin sensitivity (zone of growth inhibition) ([3]; upf1Δ or upf2Δ strains) | Paromomycin sensitivity (zone of growth inhibition) ([3]; upf3Δ strain vs isogenic wild-type, disc containing 1 mg of paromomycin) |
| --- | --- | --- | --- | --- | --- | --- |
| Nc1ncnc2c1ncn2[C@@H]1O[C@H](COP(=O)(O)OP(=O)(O)OP(=O)(O)O)[C@@H](O)[C@H]1O [ATP] | did not affect the interaction; also recorded: did not prevent association of Upf1p with eRF3 | – | – | – | – | – |
| Nc1nc2c(ncn2[C@@H]2O[C@H](COP(=O)(O)OP(=O)(O)OP(=O)(O)O)[C@@H](O)[C@H]2O)c(=O)[nH]1 [GTP] | not affected | – | – | – | – | – |
| NC[C@@H]1O[C@H](O[C@H]2[C@@H](O)[C@H](O[C@@H]3[C@@H](O)[C@H](N)C[C@H](N)[C@H]3O[C@H]3O[C@H](CO)[C@@H](O)[C@H](O)[C@H]3N)O[C@@H]2CO)[C@H](N)[C@@H](O)[C@@H]1O [paromomycin] | – | increased continuously with increased concentrations of paromomycin | unaffected | increased sensitivity to paromomycin than the isogenic wild-type strain | Neither the upf1Δ or upf2Δ strains demonstrate hypersensitivity | more sensitive to paromomycin than the isogenic wild-type strain |
